Marks after values point to notes of the source that are not given here.
Assays:
hA3AR [1] = target: T1, hA3AR (Homo sapiens, UniProt P0DMS8); experiment: Wash-out assay, [3H]PSB-11 binding after washing; conditions: 1 μM compound, pre-incubated 2 h at 25 °C, washed 4 times
T1 construct: expressed in transfected cells; host or cells: CHO cells (CHOhA3AR), gift of Prof; K.N. Klotz, University of Würzburg; used as membrane fractions or live cells
T1 sequence (P0DMS8 1-318): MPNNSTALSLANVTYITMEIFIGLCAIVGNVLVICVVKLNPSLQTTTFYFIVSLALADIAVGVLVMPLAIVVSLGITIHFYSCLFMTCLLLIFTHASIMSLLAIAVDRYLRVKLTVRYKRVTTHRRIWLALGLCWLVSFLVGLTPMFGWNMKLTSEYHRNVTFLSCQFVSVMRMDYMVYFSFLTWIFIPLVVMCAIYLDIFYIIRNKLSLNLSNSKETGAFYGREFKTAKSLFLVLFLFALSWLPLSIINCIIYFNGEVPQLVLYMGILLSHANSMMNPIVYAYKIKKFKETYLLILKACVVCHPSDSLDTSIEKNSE
Description: 200 μL assay buffer (50 mM Tris–HCl, pH 8.0, 10 mM MgCl2, 1 mM EDTA and 0.01% CHAPS), 100 μL assay buffer containing the competing ligand (final concentration: 1 μM), and 100 μL of CHOhA3AR membrane fractions (100 μg protein) were combined and pre-incubated for 2 h at 25 °C while shaking. The ‘4× washed’ samples were centrifuged (5 min, 13,000 rpm, 4 °C), and the supernatant was removed. The resulting pellet was dissolved in 1 mL of assay buffer and incubated for 10 min at 25 °C while shaking. The ‘4× washed’ samples were then again centrifuged (2 min, 13,000 rpm, 4 °C), the supernatant was removed, and the resulting pellet was dissolved in 1 mL of assay buffer. The latter washing steps were repeated two times (four times washing total), and the final pellet was dissolved in 300 μL assay buffer. The radioligand (10 nM [^3H]PSB-11) in 100 μL of assay buffer was added to all samples, and the samples were incubated at 25 °C for 1 h. Nonspecific binding was determined in the presence of 100 μM NECA. Incubations were terminated by addition of 1 mL of ice-cold washing buffer (50 mM Tris–HCl, pH 8.0, 10 mM MgCl2, 1 mM EDTA) and rapid vacuum filtration through prewetted 96-well GF/B filter plates using a Brandel harvester. Filters were subsequently washed 5 times with ice-cold wash buffer. The plates were dried under vacuum, and a MicroscintTM-20 cocktail (PerkinElmer) was added subsequently. After 3 h, the filter-bound radioactivity was determined using a 2450 MicroBeta Microplate Counter (PerkinElmer).

hA3AR [2] = target: T1, hA3AR; experiment: Full curve radioligand displacement assay on the adenosine A3 receptor, [3H]PSB-11; format: binding; conditions: mean ± SEM, n=3; for apparent pKi (pre-0 h) / apparent pKi (pre-4 h): CHO-hA3AR membranes, 25 °C; for apparent pKi (pre-0 h): 0.5 h co-incubation of probe and radioligand, no pre-incubation; for apparent pKi (pre-4 h): 4 h pre-incubation with probe then 0.5 h co-incubation with radioligand; for fold change, ratio Ki(0 h)/Ki(4 h): hA3AR
Description: Membrane aliquots containing 15 μg of protein (CHOhA3AR) were resuspended in assay buffer (50 mM Tris–HCl, pH 8.0, 10 mM MgCl2, 1 mM EDTA, 0.01% CHAPS). The competing ligand (concentrations ranging from 0.1 to 1000 nM) was added and pre-incubated with the membrane fractions for either 0 or 4 h. The radioligand (10 nM [^3H]PSB-11) was then added and incubated with the samples in a total volume of 100 μL of assay buffer for 30 min at 25 °C. Nonspecific binding was determined in the presence of 100 μM NECA. Incubations were terminated by rapid vacuum filtration through prewetted 96-well GF/C filter plates using a PerkinElmer Filtermate harvester. Filters were subsequently washed 12 times with ice-cold wash buffer (50 mM Tris–HCl, pH 8.0, 10 mM MgCl2, 1 mM EDTA). The plates were dried at 55 °C, and MicroscintTM-20 cocktail (PerkinElmer) was added subsequently. After 3 h, the filter-bound radioactivity was determined using a Tri-Carb 2810TR Liquid Scintillation Analyzer (PerkinElmer).
[…]. Single point displacement values shown are mean percentages of two individual experiments performed in duplicate. All pKi values shown are mean values ± SEM of three individual experiments performed in duplicate. Statistical analysis was performed using a one-way ANOVA test with multiple comparisons (****p < 0.0001).

hA3AR [3] = target: T1, hA3AR; experiment: SDS-PAGE labeling in CHO membrane fractions, click to Cy5-N3; format: binding; conditions: 50 nM probe, compared with 5 and 13
Description: Membrane fractions were prepared as mentioned above and diluted to a concentration of 1 μg/μL. 18 μL of membrane fractions from either CHOhA3AR or CHO-K1 cells were taken. 1 μL of competing ligand (PSB-11, unless noted otherwise) was added (final concentration: 1 μM in 0.05% DMSO in assay buffer), and the samples were shaken for 30 min at rt. 1 μL of affinity-based probe was then added (final concentration: 50 nM in 0.05% DMSO in assay buffer, unless noted otherwise), and the samples were shaken for 1 h at rt. Deglycosylation was initiated by addition of 0.5 μL of PNGaseF (5 U), 0.5 μL of MilliQ water for the control samples, and the samples were shaken for 1 h at rt. The click mix was freshly prepared by adding together 5 parts 100 mM CuSO4 in MilliQ, 3 parts 1 M sodium ascorbate (NaAsc) in MilliQ, 1 part 100 mM Tris(3-hydroxypropyltriazolylmethyl)amine (THPTA) in MilliQ, and 1 part 100 μM Cy5-N3 in DMSO. […] In-gel fluorescence was measured on a Bio-Rad Universal Hood III using Cy3 (605/50 filter) or Cy5 (695/55 filter) settings. […]
Gel images were analyzed using Image Lab software version 6.0.1 (Bio-Rad). Quantification was done in the following manner: the area under the curve (AUC) of the bands was selected using the ‘Lane Profile’ tab and the adjusted volumes were taken. […]

| SMILES | binding to hA3AR after wash-out ([3H]PSB-11 binding recovery) (hA3AR [1]) | apparent pKi (pre-0 h) (hA3AR [2]) | apparent pKi (pre-4 h) (hA3AR [2]) | fold change, ratio Ki(0 h)/Ki(4 h) (hA3AR [2]) | off-target labeling on gel (hA3AR [3]) |
| --- | --- | --- | --- | --- | --- |
| C#CCOc1ccn2c(c1)nc1c2c(=O)n(CCC)c(=O)n1CCCNC(=O)c1ccc(S(=O)(=O)F)cc1 [compound 9, 4-((3-(2,4-Dioxo-8-(prop-2-yn-1-yloxy)-3-propyl-3,4-dihydropyrido[2,1-f]purin-1(2H)-yl)propyl)carbamoyl)benzenesulfonyl fluoride] | persistent binding | 7.27 ± 0.07 | 8.40 ± 0.03 ^d | 13.5 ± 1.2 | fewer other proteins labeled |
| C#CCN(CCCn1c(=O)n(CCC)c(=O)c2c1nc1cc(OC)ccn12)C(=O)c1ccc(S(=O)(=O)F)cc1 [compound 5, 4-((3-(8-Methoxy-2,4-dioxo-3-propyl-3,4-dihydropyrido[2,1-f]purin-1(2H)-yl)propyl)(prop-2-yn-1-yl)carbamoyl)benzenesulfonyl fluoride] | persistent binding | 7.55 ± 0.01 | 8.52 ± 0.05 ^d | 9.5 ± 1.0 | – |

From paper PMC10461224, “Development of an Affinity-Based Probe to Profile Endogenous Human Adenosine A3 Receptor Expression” (Journal of Medicinal Chemistry, 2023)
